Key:
[1] = Antioxidant activity assessed as concentration equivalent of 0.5 absorbance glutathione for potassium ferricyanide reduction after 20 min by spectrophotometric assay; type: functional
[2] = tested on: Radical scavenging activity; test: Antioxidant activity assessed as DPPH radical scavenging activity at 1 mg/ml after 20 min by spectrophotometric analysis; type: functional

SMILES | Activity [1] | Activity [2]
COC(=O)c1c(OC)cc(-c2ccc(F)cc2)cc1-c1ccc(F)cc1 | 14.3 mg/mL | 49.1%
COC(=O)C1/C(=N/NC(N)=O)C=C(c2ccc(F)cc2)CC1c1ccc(F)cc1 (stereo unspecified) | 20 mg/mL | 65.4%
N/N=C(N)/N=C1/C=C(c2ccc(F)cc2)CC(c2ccc(F)cc2)C1 (stereo unspecified) | 4.03 mg/mL | 89.2%
O=c1c2c(-c3ccc(F)cc3)cc(-c3ccc(F)cc3)cc2[nH]n1-c1ccccc1 | 5.55 mg/mL | 95.2%
N[C@@H](CCC(=O)N[C@@H](CS)C(=O)NCC(=O)O)C(=O)O | 0.595 mg/mL | 92.1%
O=c1[nH][nH]c2c1C(c1ccc(F)cc1)CC(c1ccc(F)cc1)=C2 (stereo unspecified) | 1.81 mg/mL | 95.9%
O=C1Nc2ccccc2Nc2cc(-c3ccc(F)cc3)cc(-c3ccc(F)cc3)c21 | 2.64 mg/mL | 58.7%
CCOC(=O)C1=C(N)C=C(c2ccc(F)cc2)CC1c1ccc(F)cc1 (stereo unspecified) | 25 mg/mL | 68%
O/N=C1/C=C(c2ccc(F)cc2)CC(c2ccc(F)cc2)C1 (stereo unspecified) | 4.54 mg/mL | 89.2%
O=c1c2c([nH]n1-c1ccc([N+](=O)[O-])cc1)C=C(c1ccc(F)cc1)CC2c1ccc(F)cc1 (stereo unspecified) | 3.52 mg/mL | 94.4%
CCOC(=O)C1/C(=N/NC(N)=O)C=C(c2ccc(F)cc2)CC1c1ccc(F)cc1 (stereo unspecified) | 8.33 mg/mL | 66.5%
CCOC(=O)c1c(OC)cc(-c2ccc(F)cc2)cc1-c1ccc(F)cc1 | 22.7 mg/mL | 50.2%
COC(=O)C1=C(N)C=C(c2ccc(F)cc2)CC1c1ccc(F)cc1 (stereo unspecified) | 5.55 mg/mL | 40.9%
